The text below walks through data of US20230256095A1, “DYES FOR USE IN A METHOD OF TREATMENT OF VITREOUS OPACITY-RELATED DISEASES” (UNIVERSITEIT GENT, priority 2020, published 2023).

The data set relates to immortalized human Müller cells (MIO-M1). Kind of data set: MTT toxicity assay on Müller cells. It is filed as cell-based. Here is the method: MIO-M1 cells were cultured in DMEM Glutamax medium (Thermo Fisher Scientific, Waltham, USA). The medium contained 10% foetal bovine serum (FBS) (Thermo Fisher Scientific, Waltham, USA), 100 IU/ml penicillin (Gibco®-Invitrogen life technologies, Walthan, USA), 100 μg/ml streptomycin (Gibco®-Invitrogen life technologies, Walthan, USA) and 2 mM L-Glutamin (Gibco®-Invitrogen life technologies, Walthan, USA). Before use, the medium was passed through a 0.2 μm PES membrane vacuum filter (VWR, Radnor, USA). The cells were plated in polystyrene cell culture flasks (surface=75 cm^2) (VWR, Radnor, USA) and placed in the incubator (37° C., 5% CO2) (Thermo Fisher Scientific, Waltham, USA) until confluence was reached (i.e. the cells forming a monolayer covering 80%-90% of the culture flask). The morphology was checked by microscopy (VWR, Radnor, USA). After reaching the confluence (more or less after 5 days) and checking the morphology, cells were split in new culture flasks. […]
To test the toxicity of free and nano-encapsulated ICG, we wanted to seed 7,000 Müller cells in each well of a 96-well plate (VWR, Radnor, USA). The cells were counted with a Bürker counting chamber (BRAND, Wertheim, Germany) to obtain the proper number of cells. […] The non-coloured cells were counted in 6 big squares (3 on each side of the chamber); each big square contained 0.1 μL mixture. […]
A general note: Formazan colour is commonly taken as a measure of viable cells.

Molecules are shown by their SMILES.

As to `CC1(C)C(/C=C/C=C/C=C/C=C2\N(CCCCS(=O)(=O)O)c3ccc4ccccc4c3C2(C)C)=[N+](CCCCS(=O)(=O)[O-])c2ccc3ccccc3c21` [ICG, Indocyanine Green], the “toxicity on immortalized human retinal cells (MIO-M1)” value (0.5 mg/ml) was “no clear toxicity”. Besides, for the setting “24 hours, 0.1-1 mg/ml”, the “toxicity / metabolic activity (MTT)” value was “rather acceptable toxicity up to a concentration of 0.5 mg/ml”.
